Source: patent publication US11065252B2, “Treatment of rosacea with P38 and Erk kinase pathway inhibitors” (Albany Medical College, priority 2016, dated 2021)

How the values were obtained:
Balb/c mice = assay: Skin safety of daily topical cream on shaved backs of mice; assay type: in vivo
Source text: Wild type Balb/c mice of 6-8 weeks of age were used to determine the safety and efficacy of application of a cream containing an inhibitor of the Erk pathway. Animal studies were approved by the Albany Medical Center Institutional Review Board. The fur of the back was removed with an application of Nair. Three days later, three marks were made on the backs of the mice and treated with a cream containing trametinib (an Erk pathway inhibitor), vehicle cream (without an active ingredient) or nothing daily for five days. One hour after the last application, the spots were treated with one cream or the other, and cutaneous inflammation was induced via exposure to 1-Fluoro-2,4-dinitrobenzene (hereafter DNFB). Six hours later mice were euthanized and the skin spots were processed for histological analysis.
More specifically, to determine whether a cream containing an inhibitor of the Erk activation pathway would effectively penetrate the skin and protect it from an external injury, four mice were treated once a day for five consecutive days on a shaved back with a cream containing 0.1 mg/ml trametinib and cream without drug as described in FIG. 4. Regions labeled ‘U’ were left untreated and represent the baseline normal skin. […] Regions labeled ‘T’ were treated with a cream containing trametinib as the active ingredient. […]

[1] = system: subjects with acute coronary syndrome; details: phase III trial; cited from earlier work

SMILES | Skin changes after application of cream (photographs) (Balb/c mice; cream containing 0.1 mg/ml trametinib, topical, once a day for five days, shaved back) | Acute adverse effect in the skin (Balb/c mice; topical cream containing trametinib, five days) | Efficacy in reducing the incidence of cardiovascular events [1] | Safety profile in trial [1]
CC(=O)Nc1cccc(-n2c(=O)n(C3CC3)c(=O)c3c(Nc4ccc(I)cc4F)n(C)c(=O)c(C)c32)c1 [trametinib, Trametinib] | No skin changes | does not elicit an acute adverse effect | – | –
Cc1c(F)cc(C(=O)NC2CC2)cc1-c1ccc(C(=O)NCC(C)(C)C)cn1 [Losmapimod] | – | – | did not demonstrate efficacy | good safety profile
